Literature values as cited in patent publication US20210022978A1, “BUMETANIDE DERIVATIVES FOR THE THERAPY OF HYPERHIDROSIS” (ZILENTIN AG, priority 2018, published 2021).

Columns and labels:
conditioned anxiety = conditions: rats, compared with the vehicle alone
NKCC in sweat glands = target: T1, NKCC in sweat glands (Homo sapiens, UniProt P55011)
T1 construct: host or cells: sweat glands (in vivo)
T1 sequence (P55011 1-1212): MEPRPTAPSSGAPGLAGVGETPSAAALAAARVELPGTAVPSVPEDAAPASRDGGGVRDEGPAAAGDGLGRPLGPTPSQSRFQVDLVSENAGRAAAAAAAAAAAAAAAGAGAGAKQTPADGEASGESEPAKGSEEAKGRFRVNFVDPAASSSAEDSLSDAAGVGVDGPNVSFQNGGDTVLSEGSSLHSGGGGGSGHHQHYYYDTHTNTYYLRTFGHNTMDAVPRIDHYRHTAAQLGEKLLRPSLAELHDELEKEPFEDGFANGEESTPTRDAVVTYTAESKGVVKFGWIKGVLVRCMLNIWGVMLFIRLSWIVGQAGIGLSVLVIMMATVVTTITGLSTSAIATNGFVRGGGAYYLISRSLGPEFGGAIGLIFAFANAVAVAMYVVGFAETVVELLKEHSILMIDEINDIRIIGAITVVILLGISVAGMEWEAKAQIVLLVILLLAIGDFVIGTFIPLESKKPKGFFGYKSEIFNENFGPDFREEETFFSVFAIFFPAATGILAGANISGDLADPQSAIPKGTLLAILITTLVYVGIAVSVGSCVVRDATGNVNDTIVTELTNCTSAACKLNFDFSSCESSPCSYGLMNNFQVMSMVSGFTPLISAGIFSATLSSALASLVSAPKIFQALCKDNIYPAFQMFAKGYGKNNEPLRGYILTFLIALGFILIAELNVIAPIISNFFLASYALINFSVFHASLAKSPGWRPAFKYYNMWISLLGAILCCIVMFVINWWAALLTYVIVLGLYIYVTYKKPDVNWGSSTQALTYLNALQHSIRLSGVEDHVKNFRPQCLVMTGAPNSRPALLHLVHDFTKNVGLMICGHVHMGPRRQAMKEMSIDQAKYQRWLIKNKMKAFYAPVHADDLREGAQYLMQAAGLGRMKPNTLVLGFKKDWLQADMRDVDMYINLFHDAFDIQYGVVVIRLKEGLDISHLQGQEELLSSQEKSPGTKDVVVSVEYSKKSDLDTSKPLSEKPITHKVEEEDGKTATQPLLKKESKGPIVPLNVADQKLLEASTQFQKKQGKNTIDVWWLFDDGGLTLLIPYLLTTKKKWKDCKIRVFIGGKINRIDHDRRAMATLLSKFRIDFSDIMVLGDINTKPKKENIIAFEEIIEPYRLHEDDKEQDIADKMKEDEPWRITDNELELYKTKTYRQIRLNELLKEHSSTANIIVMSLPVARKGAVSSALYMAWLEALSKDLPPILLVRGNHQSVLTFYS

effectiveness in treating hyperhidrosis (NKCC in sweat glands) | Structure (SMILES) | percentage of test period freezing (conditioned anxiety) | inhibition of rAceMIF tautomerase activity (rAceMIF)
partly effective | CCCCNc1cc(C(=O)O)cc(S(N)(=O)=O)c1Oc1ccccc1 [bumetanide, 3-(butylamino)-4-phenoxy-5-sulfamoylbenzoic acid] | significantly smaller percentage of test period freezing | –
– | NS(=O)(=O)c1cc(C(=O)O)c(NCc2ccco2)cc1Cl [furosemide] | – | submicromolar
